The record followed here is patent US20250281433A1, “NOVEL DERIVATIVE COMPOUND HAVING BIPHENYL GROUP INTRODUCED INTO AMINO-ALKANOIC ACID AND ANTI-INFLAMMATORY COMPOSITION COMPRISING SAME” (AMTIXBIO CO., LTD., priority 2020, published 2025).

Assay [1] has as its system IL-6 production in RAW264.7 cells. Briefly: LPS-induced IL-6 production in RAW264.7 cells (ELISA). Format: cell-based, mouse. The conditions noted are these: for Relative amount of IL-6 compared to LPS induction (%): Table 3, compounds at 8 μg/mL (FIG. 1), LPS alone = 100%. As to the method: The inhibitory effect on induced IL-6 cytokine production was analyzed. RAW264.7 cells (obtained from the Korean Cell Line Bank) were seeded at a density of 5×10^5 cells/well in a 12-well plate and stabilized in a CO2 incubator at 37° C. with 5% carbon dioxide and saturated humidity. After 24 hours of incubation, the compounds of the present invention were prepared in DMEM at concentrations of 0 μg/mL or 8 μg/mL and pre-treated for 30 minutes. Next, lipopolysaccharide (LPS, Sigma-Aldrich, Cat No. L2887) was treated to a concentration of 1 μg/mL to induce an inflammatory response for 24 hours. Subsequently, mouse IL-6 ELISA kit (Labiskoma, Cat No. K0331230P) and mouse TNF-α ELISA kit (Labiskoma, Cat No. K0331186P) were used according to the manufacturer's instructions, and absorbance was measured. FK506 (FK-506 monohydrate, manufacturer: MilliporeSigma, product number: F4679, U.S.A) was used as a control substance.
After inducing inflammation as described in (1) and (2) above, the supernatant was collected, and the quantification of IL-6 in the supernatant was performed using the IL-6 ELISA kit (Mouse IL-6 ELISA Kit, pink-ONE, manufactured by Komabiotech, Product No. K0331230P) according to the manufacturer's instructions. Specifically, the amount of IL-6 in the supernatant was quantified according to the ELISA kit protocol, and the absorbance was measured at OD 450 nm using a microplate reader (Multiskan Sky, manufactured by Thermo Fisher Scientific). […] In Table 1 to Table 3, FIG. 1, and FIG. 2, the relative values of IL-6 generated after pretreatment with the compounds of the present invention were expressed as a percentage relative to the IL-6 production (100%) induced by LPS, TNF-α, or IFN-β treatment.
In general terms: In an ELISA, binding on a coated surface is turned into a signal by an enzyme label.

Assay [2] deals with psoriasis-related cytokine genes IL-17A, IL-17F, IL-23A (p19), IL-12A (p35), IL-12B (p40), IL-1β. Nature of the assay: Aldara cream-induced mouse psoriasis model: qRT-PCR of dorsal skin. Format: in vivo. The conditions noted are these: dorsal skin RNA, normalized to 18s rRNA; topical; Compound 51 1%, Betamethasone 0.05%; versus Veh. How it is done:
(§1) After dissolving the test substance (Compound 51 of the present invention) using DMSO (Dimethyl sulfoxide, Sigma, Cat No. 472301), an appropriate concentration was prepared with PBS (HyClone, Cat No. SH30028.02). The transdermal test substance was prepared by dissolving the test substance in 100% ethanol (Medchem, Cat No. HY-13571). Betamethasone dipropionate (Sigma, Cat No. D1756, Lot No. BCBW7684), a positive control, was dissolved in DMSO, and PEG400 (Sigma, Cat. No. 06855) and 30% ethanol (Daejung, Cat. No. 4023-4100) were added to the mixture obtained above. The same vehicle was used for the negative control in the same way as the positive control specimen preparation.
(§2) BALB/c mice (purchased through JA BIO, 27 males, 8 weeks old) were acclimatized for one week. After the mice were anesthetized with isoflurane 3 days before the application of Aldara cream, the hair on the back (3×3 cm) was removed using a clipper. The remaining hair was completely removed by leaving the hair removal cream for 1 minute. The mice were left for 72 hours to heal the wounds. To induce psoriasis, Aldera Cream (5% Imiquimod, Dong-A ST) 62.5 mg was applied at the same time point (AM 10:00) once/day 7 times, and 150 μl of test substance or positive control was applied from the 4th day at the same time point (PM 14:00) for 4 days. […]
For orientation: Real-time PCR tracks product formation cycle by cycle.

Assay [3] relates to psoriasis symptoms induced by Aldara cream in BALB/c mice. Briefly: Aldara cream-induced mouse psoriasis model: evaluation of scratching. Format: in vivo. As to conditions: 8th day; topical; Compound 51 1%, Betamethasone 0.05%; versus Veh. As to the method:
as §1, §2

Assay [4] shares this test system. Nature of the assay: Aldara cream-induced mouse psoriasis model: skin lesions / PASI score. It is filed as in vivo. The conditions noted are these: topical 150 μl for 4 days from 4th day, Compound 51 1%, Betamethasone 0.05%, versus Veh. How it is done:
as §1
BALB/c mice (purchased through JA BIO, 27 males, 8 weeks old) were acclimatized for one week. After the mice were anesthetized with isoflurane 3 days before the application of Aldara cream, the hair on the back (3×3 cm) was removed using a clipper. The remaining hair was completely removed by leaving the hair removal cream for 1 minute. The mice were left for 72 hours to heal the wounds. To induce psoriasis, Aldera Cream (5% Imiquimod, Dong-A ST) 62.5 mg was applied at the same time point (AM 10:00) once/day 7 times, and 150 μl of test substance or positive control was applied from the 4th day at the same time point (PM 14:00) for 4 days. The composition of each test group was as follows. a) Con: Normal+excipient application group: 8 animals; b) Veh: Aldara cream+excipient application group: 8 animals; c) Beta: Aldara+Betamethasone 0.05% applied group: 8 animals; and d) Compound 51 1%: Aldara+Compound 51 1% application group: 3 animals. The autopsy proceeded in a non-fasting state, and the dorsal skin was removed from each mouse, rapidly frozen in liquid nitrogen, and stored at −80° C. before for the subsequent experiments.
After taking pictures on the 0th, 4th, and 8th days to measure the skin index values, they were visually observed and recorded to measure the degree of skin lesions on the dorsal area. The condition of psoriasis skin lesions in each group was scored according to the evaluation index (erythema, skin thickness, dead skin cells) as None (0), Weak (1), Moderate (2), Severe (3), Very Severe (4) and set the score, and by summing up the scores of the three items, an evaluation score between a minimum of 0 and a maximum of 12 was calculated. […] After taking pictures in all groups on the 0th, 4th and 8th days, the evaluation indexes (erythema, skin thickness, and dead skin cells) of the psoriasis skin lesions in each group were graphed.

On to `CCCC(N)C(=O)Nc1ccc(-c2ccc(OC(F)(F)F)cc2)cc1.Cl` (racemic) [Compound 32, (R)/(S)-2-amino-N-(4′-(trifluoromethoxy)-[1,1′-biphenyl]-4-yl)pentanamide hydrochloride], for which the “Relative amount of IL-6 compared to LPS induction (%)” value (“Relative amount … (%)” below) in assay [1] (LPS 1 μg/mL 24 h) is on record as 16%.
As for `CCCC(C(=O)Nc1ccc(-c2ccc(Cl)c(Cl)c2)cc1)N(C)C` (racemic) [Compound 36, (R)/(S)—N-(3′,4′-dichloro-[1,1′-biphenyl]-4-yl)-2-(dimethylamino)pentanamide], in assay [1] (LPS 1 μg/mL 24 h), the “Relative amount … (%)” value amounted to 9%.
Same read-out and setting: then `CCCC(N)C(=O)NCc1ccc(-c2ccc(Cl)c(Cl)c2)cc1.Cl` (racemic) [Compound 45, (R)/(S)-2-amino-N-((3′,4′-dichloro-[1,1′-biphenyl]-4-yl)methyl)pentanamide hydrochloride], with 3%; and `CCCC(N)C(=O)NCc1ccc(-c2ccc(C(F)(F)F)cc2)cc1.Cl` (racemic) [Compound 47, (R)/(S)-2-amino-N-((4′-(trifluoromethyl)-[1,1′-biphenyl]-4-yl)methyl)pentanamide hydrochloride], with 12%; and `CCCCC(N)C(=O)NCc1ccc(-c2ccc(C(F)(F)F)cc2)cc1.Cl` (racemic) [Compound 48, (R)/(S)-2-amino-N-((4′-(trifluoromethyl)-[1,1′-biphenyl]-4-yl)methyl)hexanamide hydrochloride], with 67%.
Same read-out and setting: then `CCCC(N)C(=O)NCc1ccc(-c2ccc(OC(F)(F)F)cc2)cc1.Cl` (racemic) [Compound 49, (R)/(S)-2-amino-N-((4′-(trifluoromethoxy)-[1,1′-biphenyl]-4-yl)methyl)pentanamide hydrochloride], with 50%; and `CCCCC(N)C(=O)NCc1ccc(-c2ccc(OC(F)(F)F)cc2)cc1.Cl` (racemic) [Compound 50, (R)/(S)-2-amino-N-((4′-(trifluoromethoxy)-[1,1′-biphenyl]-4-yl)methyl)hexanamide hydrochloride], with 68%; and `CCCC(NC)C(=O)NCc1ccc(-c2ccc(C(F)(F)F)cc2)cc1.Cl` (racemic) [Compound 52, (R)/(S)-2-(methylamino)-N-((4′-(trifluoromethyl)-[1,1′-biphenyl]-4-yl)methyl)pentanamide hydrochloride], with 13%.
Still for that read-out and setting: then `CCCC(C(=O)NCc1ccc(-c2ccc(Cl)c(Cl)c2)cc1)N(C)C` (racemic) [Compound 53, (R)/(S)—N-((3′,4′-dichloro-[1,1′-biphenyl]-4-yl)methyl)-2-(dimethylamino)pentanamide], with 5%; and `CCC(N)C(=O)NCCc1ccc(-c2ccc(C(F)(F)F)cc2)cc1.Cl` (racemic) [Compound 76, (R)/(S)-2-amino-N-(2-(4′-(trifluoromethyl)-[1,1′-biphenyl]-4-yl)ethyl)butanamide hydrochloride], with 9.58%.
On to `CCCC(N)C(=O)NCCc1ccc(-c2ccc(OC(F)(F)F)cc2)cc1.Cl` (racemic) [Compound 80, (R)/(S)-2-amino-N-(2-(4′-(trifluoromethoxy)-[1,1′-biphenyl]-4-yl)ethyl)pentanamide hydrochloride], for which the “Relative amount … (%)” value in assay [1] (LPS 1 μg/mL 24 h) worked out at 6%.
Regarding `CCCC(N)C(=O)NCCc1ccc(-c2ccc(F)c(F)c2)cc1.Cl` (racemic) [Compound 82, (R)/(S)-2-amino-N-(2-(3′,4′-difluoro-[1,1′-biphenyl]-4-yl)ethyl)pentanamide hydrochloride], the “Relative amount … (%)” value in assay [1] (LPS 1 μg/mL 24 h) was found to be 3%.
Consider `CCC(NC)C(=O)NCCc1ccc(-c2ccc(Cl)c(Cl)c2)cc1.Cl` (racemic) [Compound 83, (R)/(S)—N-(2-(3′,4′-dichloro-[1,1′-biphenyl]-4-yl)ethyl)-2-(methylamino)butanamide hydrochloride], for which the “Relative amount … (%)” value in assay [1] (LPS 1 μg/mL 24 h) is given as 9%.
On to `CCCC(NC)C(=O)NCCc1ccc(-c2ccc(C(F)(F)F)cc2)cc1.Cl` (racemic) [Compound 87, (R)/(S)-2-(methylamino)-N-(2-(4′-(trifluoromethyl)-[1,1′-biphenyl]-4-yl)ethyl)pentanamide hydrochloride], for which the “Relative amount … (%)” value in assay [1] (LPS 1 μg/mL 24 h) is 24%.
Take `CCC(=O)OCC(=O)[C@@]1(OC(=O)CC)[C@@H](C)C[C@H]2[C@@H]3CCC4=CC(=O)C=C[C@]4(C)[C@@]3(F)[C@@H](O)C[C@@]21C` [Beta, Betamethasone dipropionate, reference compound]: in assay [2], the “psoriasis-related cytokine genes (IL-17A, IL-17F, IL-23A (p19), IL-12A (p35), IL-12B (p40), IL-1β) expression” value is recorded as “significantly reduced”. The “pruritus (scratching counts, 30 minutes)” value in assay [3] is given as “significant decrease”. The “skin lesions (pictures, visual)” value in assay [4] (8th day) was “visually improved”. Further, the “PASI Score” value in assay [4] (p<0.001) is “significantly decreased”.
`C=CC[C@@H]1/C=C(\C)C[C@H](C)C[C@H](OC)[C@H]2O[C@@](O)(C(=O)C(=O)N3CCCC[C@H]3C(=O)O[C@H](/C(C)=C/[C@@H]3CC[C@@H](O)[C@H](OC)C3)[C@H](C)[C@@H](O)CC1=O)[C@H](C)C[C@@H]2OC` [FK506, FK-506 monohydrate, reference compound]: the “IL-6” value in assay [1] (Table 1, LPS 1 μg/mL 24 h, compound 77 at 8 μg/ml, FK506 concentration not given) is 656.86 pg/mL. For the same compound, the “IL-6 (%)” value in assay [1] (Table 1, relative to IL-6 production induced by LPS (100%), compound 77 at 8 μg/ml, FK506 concentration not given) is 45.31%.
